{"source": "patent US20070259967A1", "about": "“Methods of Diagnosis” (priority 2004, published 2007)", "origin": "cited, not measured here", "key": {"[1]": {"settings": "amphetamine administered to children with ADHD; Zametkin et al. 1984"}, "[2]": {"target": "T1, Platelet MAO-B (Homo sapiens, UniProt P27338)", "T1 construct": "the platelet pellet was resuspended with saline to obtain a concentration of 107 platelets/ml and then sonicated for 10 seconds; from tissue; host or cells: blood platelets (platelet rich plasma from fasting venous blood)", "T1 sequence (P27338 1-520)": "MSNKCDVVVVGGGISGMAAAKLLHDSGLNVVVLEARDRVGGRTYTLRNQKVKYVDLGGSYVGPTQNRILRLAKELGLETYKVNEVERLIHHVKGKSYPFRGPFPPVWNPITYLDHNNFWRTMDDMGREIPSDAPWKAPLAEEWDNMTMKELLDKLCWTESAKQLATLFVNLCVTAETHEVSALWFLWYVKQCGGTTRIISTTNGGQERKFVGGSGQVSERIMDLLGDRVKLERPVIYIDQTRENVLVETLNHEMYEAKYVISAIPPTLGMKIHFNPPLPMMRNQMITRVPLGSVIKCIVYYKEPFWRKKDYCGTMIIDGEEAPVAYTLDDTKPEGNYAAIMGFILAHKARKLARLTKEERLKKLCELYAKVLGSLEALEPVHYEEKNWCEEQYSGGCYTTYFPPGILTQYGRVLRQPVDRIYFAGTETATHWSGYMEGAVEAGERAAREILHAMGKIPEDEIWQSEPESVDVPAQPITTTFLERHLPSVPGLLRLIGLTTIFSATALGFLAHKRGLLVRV", "settings": "0.24 mM pargyline added as blank; 20 μM PEA, 37° C., 30 minutes; method from Zhou et al."}, "[3]": {"settings": "majority of the cited clinical studies of selegiline in ADHD"}}}
{"smiles": "CC(N)Cc1ccccc1", "note": "(stereo not drawn) [amphetamine]", "values": [{"measurement": "increase in the excretion of urinary phenylethylamine (PEA)", "setting": "[1]", "result": 1600, "unit": "%"}]}
{"smiles": "C#CCN(C)Cc1ccccc1", "note": "[pargyline]", "values": [{"measurement": "production of PAA (phenylacetic acid)", "setting": "[2]", "result": "no production of PAA"}]}
{"smiles": "C#CCN(C)[C@H](C)Cc1ccccc1.Cl", "note": "[selegiline]", "values": [{"measurement": "benefit to ADHD patients compared with psycho-stimulant treatment", "setting": "[3]", "result": "less benefit to the patients than psycho-stimulant treatment"}]}
